Experiments:
[1] = system: SDF-1 induced Ca flux in SUP-T1 cells; assay: Inhibition of chemokine (SDF-1) induced Ca flux measured on a FLIPR; type: cell-based; conditions: Homo sapiens
Method: Inhibition of Chemokine Induced Ca Flux Measured on a FLIPR (Molecular Devices) Loading dye: Fluo-3, AM (Molecular Probes F-1241) is dissolved in anhydrous DMSO and stored frozen in aliquots. To increase the solubility of the dye in the loading medium, 10% (w/v) pluronic acid (Molecular Probes F-127) is added to the Fluo-3 stock solution immediately before use. HBSS+20 mM Hepes buffer+0.2% BSA, pH 7.4. HBSS 10× [(w/o phenol red and sodium bicarbonate (Gibco 14 065–049)]; Hepes buffer 1M (Gibco 15 630–056), BSA (Sigma A3675). The flux buffer is vacuum-filtered and stored refrigerated for a maximum of 5 days. Before use in the experiment, the buffer is warmed at 37° C. in a waterbath. The test compounds were diluted in flux buffer to the desired concentration and added to 4 wells of a black microplate (4 parallel measurements per compound). The following control wells were used: 100% response control (no inhibition), flux buffer was added; 100% inhibition control: chemokine was added at 5-times the concentration required to induce a Ca flux. The chemokines are diluted in flux buffer to concentrations that are 4-fold higher than the desired concentrations required for stimulation of the cells (i.e. 2.5 nM for SDF-1[…] and 0.6 nM for RANTES). The chemokines were added to untreated 96-well Sero well compound plates (International Medical, Sterilin code 611F96). In the negative control well's (baseline monitoring), flux buffer is added instead of chemokine. As a positive control to check for dye loading efficiency, 20 μM digitonin (final concentration) was also included. The agonist plate was incubated in the FLIPR (37° C.) for 15–30 min. Cell Loading Protocol for Measuring Inhibition of SDF-1[…] Induced Ca Flux in SUP-T1 Cells. SUP-T1 cells were centrifuged at room temperature (RT) and re-suspended in loading medium (RPMI-1640 containing 2% FBS and 4 μM Fluo-3, AM). The cells were incubate at room temperature for 45 min. then washed twice in flux buffer then incubated in flux buffer at room temperature for 10 min. The cells were centrifuged and re-suspended in flux buffer at a density of 3×10^6 cells per mL. A 100 uL aliquot of the cell suspension (3×10^5 cells) was added to each well of a black microplate (Costar 3603), which already contains 50 uL of a solution of the test compound (at concentrations that are 3-fold higher than the desired final compound concentrations). The microplate is then gently centrifuged at room temperature. Homogeneous spreading of the cells on the bottom of the microplate wells was then confirmed with a microscope and the microplate was incubated in the FLIPR (37° C.) for 10 min. prior to testing. Fluorescence Measurements as a Function of Time on the FLIPR The FLIPR settings (camera exposure time and laser power) are adjusted to obtain initial fluorescence values between 8,000 and 10,000 units. After monitoring a 20 second-baseline, the agonist (chemokine) (50 uL) is added by automatic pipettor with black pipette tips. Fluorescence is measured simultaneously in all wells of the microplate every 2 seconds (first 2 min) and thereafter every 6 seconds (additional 2 min). The average ca-flux measured in each set of 4 identical wells (one test compound) was calculated by the FLIPR software.

HIV-1 NL4.3 or IIIB = assay: Inhibition of HIV-1 (NL4.3 or IIIB, CXCR4 using) replication in MT-4 cells, MTT viability; type: cell-based; conditions: Human immunodeficiency virus 1, IIIB, MT4, concentration protecting 50% of virus-infected cells against viral cytopathicity
Method: Assay for Inhibition of HIV-1 (NL4.3) Replication in MT-4 Cells Inhibition of HIV-1 NL4.3 (or IIIB, CXCR4 using) replication assays were performed as previously described (Bridger et al. J. Med. Chem. 1999, 42, 3971-3981; De […] et al. Proc. Natl. Acad. Sci, 1992, 89, 5286-5290; De […] et al. Antimicrob. Agents Chemother. 1994, 38, 668-674; Bridger et al. J. Med. Chem. 1995, 38, 366-378; Schols et al. J. Exp. Med., 1997, 186, 1383-1388). Anti-HIV activity and cytotoxicity measurements were carried out in parallel. They were based on the viability of MT-4 cells that had been infected with HIV in the presence of various concentrations of the test compounds. After the MT-4 cells were allowed to proliferate for 5 days, the number of viable cells was quantified by a tetrazolium-based colorimetric 3-(4,5-dimethylthiazol-2-yl)-2,5-diphenyltetrazolium bromide (MTT) procedure in 96-well microtrays. In all of these assays, viral input (viral multiplicity of infection, MOI) was 0.01, or 100 times the 50% cell culture infective dose (CCID50). The EC50 was defined as the concentration required to protect 50% of the virus-infected cells against viral cytopathicity.

| Compound | inhibition at 20 µg/mL [1] [%] | EC50 (HIV-1 NL4.3 or IIIB) [µg/mL] |
| --- | --- | --- |
| c1ccc(CNCc2ccc(CN(Cc3nc4cccnc4[nH]3)C3CCCc4cccnc43)cc2)nc1 (centres unmarked) [Example 10, N-(2-pyridinylmethyl)-N′-[(1H)-4-azabenzimidazol-2-ylmethyl]-N′-(5,6,7,8-tetrahydro-8-quinolinyl)-1,4-benzenedimethanamine] | > 20 | < 20 |
| Cc1ccc2nc(CN(Cc3ccc(CNCc4ccccn4)cc3)C3CCCc4cccnc43)[nH]c2c1C (centres unmarked) [Example 4, N-(2-pyridinylmethyl)-N′-(4,5-dimethyl-1-H-benzimidazol-2-ylmethyl)-N′-(5,6,7,8-tetrahydro-8-quinolinyl)-1,4-benzenedimethanamine] | > 20 | < 20 |
| Fc1ccc2nc(CN(Cc3ccc(CNCc4ccccn4)cc3)C3CCCc4cccnc43)[nH]c2c1 (centres unmarked) [Example 3, N-(2-pyridinylmethyl)-N′-(5-fluoro-1-H-benzimidazol-2-ylmethyl)-N′-(5,6,7,8-tetrahydro-8-quinolinyl)-1,4-benzenedimethanamine] | > 20 | < 20 |
| COc1ccc2nc(CN(Cc3ccc(CNCc4ccccn4)cc3)C3CCCc4cccnc43)[nH]c2c1 (centres unmarked) [Example 12, N-(2-pyridinylmethyl)-N′-[5-methoxy-1H-benzimidazol-2-ylmethyl]-N′-(5,6,7,8-tetrahydro-8-quinolinyl)-1,4-benzenedimethanamine] | > 20 | < 20 |
| Clc1ccc2[nH]c(CN(Cc3ccc(CNCc4ccccn4)cc3)C3CCCc4cccnc43)nc2c1 (centres unmarked) [Example 11, N-(2-pyridinylmethyl)-N′-[5-chloro-1H-benzimidazol-2-ylmethyl]-N′-(5,6,7,8-tetrahydro-8-quinolinyl)-1,4-benzenedimethanamine] | > 20 | < 20 |
| CCCOc1cccnc1CNCc1ccc(CN(Cc2nc3ccccc3[nH]2)C2CCCc3cccnc32)cc1 (centres unmarked) [Example 59, N-(3-propoxy-2-pyridinylmethyl)-N′-(1H-benzimidazol-2-ylmethyl)-N′-(5,6,7,8-tetrahydro-8-quinolinyl)-1,4-benzenedimethanamine] | > 20 | < 20 |
| c1ccc(CNCc2ccc(CN(Cc3nc4ccccc4s3)C3CCCc4cccnc43)cc2)nc1 (centres unmarked) [Example 16, N-(2-pyridinylmethyl)-N′-(benzothiazol-2-ylmethyl)-N′-(5,6,7,8-tetrahydro-8-quinolinyl)-1,4-benzenedimethanamine] | – | < 20 |
| COc1ccc(-c2cnc(CN(Cc3ccc(CNCc4ccccn4)cc3)C3CCCc4cccnc43)[nH]2)cc1 (centres unmarked) [Example 26, N-(2-pyridinylmethyl)-N′-[4-(4-methoxyphenyl)-1H-imidazol-2-ylmethyl]-N′-(5,6,7,8-tetrahydro-8-quinolinyl)-1,4-benzenedimethanamine] | > 20 | < 20 |
| Fc1cccc2nc(CN(Cc3ccc(CNCc4ccccn4)cc3)C3CCCc4cccnc43)[nH]c12 (centres unmarked) [Example 21, N-(2-pyridinylmethyl)-N′-(4-fluorobenzimidazol-2-ylmethyl)-N′-(5,6,7,8-tetrahydro-8-quinolinyl)-1,4-benzenedimethanamine] | > 20 | < 20 |
| Oc1cccc(CNCc2ccc(CN(Cc3nc4ccccc4[nH]3)C3CCCc4cccnc43)cc2)n1 (centres unmarked) [Example 58, N-(6-hydroxy-2-pyridinylmethyl)-N′-(1H-benzimidazol-2-ylmethyl)-N′-(5,6,7,8-tetrahydro-8-quinolinyl)-1,4-benzenedimethanamine] | > 20 | < 20 |
| Cc1cccc2nc(CN(Cc3ccc(CNCc4ccccn4)cc3)C3CCCc4cccnc43)[nH]c12 (centres unmarked) [Example 20, N-(2-pyridinylmethyl)-N′-(4-methylbenzimidazol-2-ylmethyl)-N′-(5,6,7,8-tetrahydro-8-quinolinyl)-1,4-benzenedimethanamine] | > 20 | < 20 |
| COc1ccc(OC)c2[nH]c(CN(Cc3ccc(CNCc4ccccn4)cc3)C3CCCc4cccnc43)nc12 (centres unmarked) [Example 15, N-(2-pyridinylmethyl)-N′-[4,7-dimethoxy-1H-benzimidazol-2-ylmethyl]-N′-(5,6,7,8-tetrahydro-8-quinolinyl)-1,4-benzenedimethanamine] | > 20 | < 20 |
| Brc1cccc(CNCc2ccc(CN(Cc3nc4ccccc4[nH]3)C3CCCc4cccnc43)cc2)n1 (centres unmarked) [Example 57, N-(6-bromo-2-pyridinylmethyl)-N′-(1H-benzimidazol-2-ylmethyl)-N′-(5,6,7,8-tetrahydro-8-quinolinyl)-1,4-benzenedimethanamine] | > 20 | < 20 |
| c1ccc(CNCc2ccc(CN(Cc3nc4ccccc4[nH]3)C3CCOc4cccnc43)cc2)nc1 (centres unmarked) [Example 40, N-(2-pyridinylmethyl)-N′-(1-H-benzimidazol-2-ylmethyl)-N′-(3,4-dihydro-2H-pyrano[3,2-b]pyridinyl)-1,4-benzenedimethanamine] | > 20 | < 20 |
| COC(=O)c1ccc2[nH]c(CN(Cc3ccc(CNCc4ccccn4)cc3)C3CCCc4cccnc43)nc2c1 (centres unmarked) [Example 6, N-(2-pyridinylmethyl)-N′-(5-carboxymethyl-1-H-benzimidazol-2-ylmethyl)-N′-(5,6,7,8-tetrahydro-8-quinolinyl)-1,4-benzenedimethanamine] | > 20 | < 20 |
| [O-][n+]1ccccc1CNCc1ccc(CN(Cc2nc3ccccc3[nH]2)C2CCCc3cccnc32)cc1 (centres unmarked) [Example 70, N-(1-oxo-2-pyridinylmethyl)-N′-(1H-benzimidazol-2-ylmethyl)-N′-(5,6,7,8-tetrahydro-8-quinolinyl)-1,4-benzenedimethanamine] | – | < 20 |
| Fc1ccc(-c2c[nH]c(CN(Cc3ccc(CNCc4ccccn4)cc3)C3CCCc4cccnc43)n2)cc1 (centres unmarked) [Example 36, N-(2-Pyridinylmethyl)-N′-[4-(4-fluorophenyl)-1H-imidazol-2-ylmethyl]-N′-(5,6,7,8-tetrahydro-8-quinolinyl)-1,4-benzenedimethanamine] | > 20 | < 20 |
| c1ccc(CNCc2ccc(CN(CCc3nc4ccccc4[nH]3)C3CCCc4cccnc43)cc2)nc1 (centres unmarked) [Example 23] | > 20 | < 20 |
| Oc1cccc2[nH]c(CN(Cc3ccc(CNCc4ccccn4)cc3)C3CCCc4cccnc43)nc12 (centres unmarked) [Example 7, N-(2-pyridinylmethyl)-N′-(4-hydroxy-1-H-benzimidazol-2-ylmethyl)-N′-(5,6,7,8-tetrahydro-8-quinolinyl)-1,4-benzenedimethanamine] | > 20 | < 20 |
| CCOc1cccnc1CNCc1ccc(CN(Cc2nc3ccccc3[nH]2)C2CCCc3cccnc32)cc1 (centres unmarked) [Example 69, N-(3-ethoxy-2-pyridinylmethyl)-N′-(1H-benzimidazol-2-ylmethyl)-N′-(5,6,7,8-tetrahydro-8-quinolinyl)-1,4-benzenedimethanamine] | – | < 20 |
| c1ccc(N[C@H]2CCCC[C@@H]2N(Cc2ccc(CNCc3ccccn3)cc2)Cc2nc3ccccc3[nH]2)cc1 [Example 131] | – | < 20 |

From patent publication US7084155B2, “Chemokine receptor binding heterocyclic compounds” (AnorMED, priority 2000, dated 2006)
